What all share (type): physicochemical
Data set [1] in a line: Stability in 100% polyethylene glycol (PEG) 400 solution. As to conditions: 100% PEG 400, 50° C., in the dark, after 4 weeks. From the text: (§1) Thus, the ability to produce a shelf-stable parenteral formulation is unexpected.
The nature of data set [2]: Stability in 100% propylene glycol (PG) solution. As to conditions: 50° C., in the dark, after 4 weeks.
Text: as §1

Data set [3] in a line: Solubility in water.
Text: as §1

Structures are written as SMILES.

Regarding `Cc1ccc(Nc2c(F)cccc2Cl)c(CC(=O)[O-])c1.[K+]` [Potassium salt of 5-methyl-2-(2′-chloro-6′-fluoroanilino)phenylacetic acid], in data set [1], the “degradation in a solution of 100% PEG 400” value was 5%. Besides, the “degradation in a solution of 100% PG” value in data set [2] came out at 7%. For `Cc1ccc(Nc2c(F)cccc2Cl)c(CC(=O)O)c1` [5-methyl-2-(2′-chloro-6′-fluoroanilino)phenylacetic acid], in data set [3], the solubility in water result was “relatively insoluble”.

(Values after US20080287543A1, “Pharmaceutical composition comprising 5-methyl-2 (2'-chloro-6'-fluoroanillino) phen ylacetic acid” (priority 2003, published 2008).)
